This is an account of results in patent publication US10227333B2, “Inhibition of OLIG2 activity” (Curtana Pharmaceuticals, Inc., priority 2015, dated 2019).

One assay has as its system GBM8 cells. The assay can be described thus: GBM8 viability assay (Cell Titer Glo luminescence). The following applies: 72 h; human glioblastoma neurosphere cells GBM8, 3 days incubation at 37° C., inhibition of cell growth by Cell Titer Glo luminescence; read-out: FBM8 (IC50). In kind it is cell-based. The protocol: (§1) Cell culture medium was prepared from a NSA proliferation kit (Neurocult) and NeuroCult supplements (Stemcell Tech Cat. #05751) and treated with 20 μL of 10 μg/mL rh EGF, 10 μL of 10 μg/mL rh bFGF and 10 μL of 0.2% Heparin. In this medium, human glioblastoma cells were cultured in ultra-low attachment tissue culture flasks until 1×10^6 cells ml was achieved (GBM4 and GBM8 are distinct neuro sphere cell cultures derived from these human patient tissues). GBM4 and GBM8 cells were dissociated and 10 mL of media containing 4000 human glioblastoma cells per 90 uL were transferred to an ultra-low binding 96-well plate and incubated at 37° C. overnight. On the following day, 10 μL of a 1% DMSO solution of test compound in assay medium was added to wells containing the cell suspension and the mixture incubated at 37° C. for 3 days. At this time, the plate was removed from the incubator and allowed to reach room temperature. After about 30 minutes, 50 μL of Cell Titer Glo solution was added to each well and the plate shaken for 1 minute at low speed. After 10 minutes luminescence was recorded using a Tecan Safire2 reader.
(§2) Reduction in luminescence compared to DMSO only control wells was used to determine the percentage inhibition of cell growth. IC50s were calculated using the % inhibition of luminescence for serial dilutions of compounds fitted to a 4-parameter fit within the Prism (San Diego) curve fitting program.
(In general: ATP-based viability assays read luminescence as a measure of living cells.)

The test system of the next assay is GBM4 cells. Description: GBM4 viability assay (Cell Titer Glo luminescence). In kind it is cell-based. The note with it: 72 h; human glioblastoma neurosphere cells GBM4, 3 days incubation at 37° C., inhibition of cell growth by Cell Titer Glo luminescence. The protocol: as §1, §2

pIC50: −log10 of the molar value.

The pIC50 is the negative decadic logarithm of the IC50, by convention in mol/L. As to `CCN1CCCC(Nc2cc(C)nc(NC(=N)Nc3ccc(Cl)c(Cl)c3)n2)C1` (racemic) [Compound 7, (±)-2-[3-(3,4-dichlorophenyl)guanidino]-4-(1-ethyl-3-piperidylamino)-6-methylpyrimidine], the pIC50 in the assay on GBM8 cells and in the assay with GBM4 cells was greater than 5.00 in each case. Turning to `Cc1cc(Oc2ccncc2)nc(NC(=N)Nc2ccc(Cl)c(Cl)c2)n1` [Compound 8, 1-(3,4-dichlorophenyl)-3-[6-methyl-4-(4-pyridyloxy)-2-pyrimidinyl]guanidine], the negative logarithm of the IC50 (pIC50) in the assay with GBM8 cells and in the assay with GBM4 cells was less than 4.52 throughout. For the compound `Cc1cc(NC2CCNCC2)nc(NC(=N)Nc2ccc(Cl)c(Cl)c2)n1` [Compound 9, 2-[3-(3,4-dichlorophenyl)guanidino]-6-methyl-4-(4-piperidylamino)pyrimidine], the pIC50 in the assay on GBM8 cells and in the assay on GBM4 cells was less than 4.52 in each case. Regarding `Cc1cc(N[C@H]2CCCNC2)nc(NC(=N)Nc2ccc(Cl)c(Cl)c2)n1` [Compound 10, (5)-1-(3,4-dichlorophenyl)-3-(4-methyl-6-(piperidin-3-ylamino)pyrimidin-2-yl)guanidine], the pIC50 with GBM8 cells and in the assay on GBM4 cells was greater than 5.00 throughout. As for `Cc1cc(N[C@@H]2CCCNC2)nc(NC(=N)Nc2ccc(Cl)c(Cl)c2)n1` [Compound 11, (R)-1-(3,4-dichlorophenyl)-3-(4-methyl-6-(piperidin-3-ylamino)pyrimidin-2-yl)guanidine], the pIC50 in the assay on GBM8 cells and in the assay with GBM4 cells was greater than 5.00 throughout.

With `CCN1CCC[C@@H](Nc2cc(C)nc(NC(=N)Nc3ccc(Cl)c(Cl)c3)n2)C1` [Compound 12, 4-[(3R)-1-ethyl-3-piperidylamino]-2-[3-(3,4-dichlorophenyl)guanidino]-6-methyl-pyrimidine], the pIC50 in the assay on GBM8 cells and with GBM4 cells was greater than 5.00 throughout.

With `Cc1cc(Oc2cccnc2)nc(NC(=N)Nc2ccc(Cl)c(Cl)c2)n1` [Compound 13, 1-(3,4-dichlorophenyl)-3-[6-methyl-4-(3-pyridyloxy)-2-pyrimidinyl]guanidine], the pIC50 was less than 4.52 in the assay with GBM8 cells and 4.52 to 5.00 with GBM4 cells. For `Cc1cc(Nc2cccnc2)nc(NC(=N)Nc2ccc(Cl)c(Cl)c2)n1` [Compound 14, 2-[3-(3,4-dichlorophenyl)guanidino]-6-methyl-4-(3-pyridylamino)pyrimidine] the same measures were greater than 5.00 and greater than 5.00. As for `Cc1cc(NC2CCCCC2)nc(NC(=N)Nc2ccc(Cl)c(Cl)c2)n1` [Compound 15, 4-(cyclohexylamino)-2-[3-(3,4-dichlorophenyl)guanidino]-6-methylpyrimidine], the negative logarithm of the IC50 (pIC50) in the assay with GBM8 cells and with GBM4 cells was greater than 5.00 in each case.

For the compound `Cc1cc(NC2CCOCC2)nc(NC(=N)Nc2ccc(Cl)c(Cl)c2)n1` [Compound 16, 2-[3-(3,4-dichlorophenyl)guanidino]-6-methyl-4-(tetrahydro-2H-pyran-4-ylamino)-pyrimidine], the pIC50 in the assay with GBM8 cells is greater than 5.00; in the assay with GBM4 cells, 4.52 to 5.00. Regarding `Cc1cc(OC2CCCNC2)nc(NC(=N)Nc2ccc(Cl)c(Cl)c2)n1` (stereo not drawn) [Compound 17, 1-(3,4-dichlorophenyl)-3-[6-methyl-4-(3-piperidyloxy)-2-pyrimidinyl]guanidine], the values for the negative-log IC50 (pIC50) with GBM8 cells and in the assay with GBM4 cells were greater than 5.00 and 4.52 to 5.00, respectively. On the same counts, the results for `CCN1CCCC(Nc2cc(C)nc(NC(=N)N(C)c3ccc(Cl)c(Cl)c3)n2)C1` (stereo not drawn) [Compound 21, 2-[3-(3,4-dichlorophenyl)-3-methylguanidino]-4-[1-ethyl-3-piperidylamino]-6-methylpyrimidine] are less than 4.52 and 4.52 to 5.00.

Regarding `CCN1CCC[C@H](Nc2cc(C)nc(NC(=N)Nc3ccc(Cl)c(Cl)c3)n2)C1` [Compound 24, (S)-1-(3,4-dichlorophenyl)-3-(4-(1-ethylpiperidin-3-ylamino)-6-methylpyrimidin-2-yl)guanidine], the negative-log IC50 (pIC50) in the assay on GBM8 cells and with GBM4 cells was greater than 5.00 throughout.

For `CCN1CCC(Oc2cc(C)nc(NC(=N)Nc3ccc(Cl)c(Cl)c3)n2)CC1` [Compound 25, 1-(3,4-dichlorophenyl)-3-[4-(1-ethyl-4-piperidyloxy)-6-methyl-2-pyrimidinyl]-guanidine], the pIC50 with GBM8 cells and in the assay with GBM4 cells was 4.52 to 5.00 throughout. As to `CCN1CCC(Nc2cc(C)nc(NC(=N)Nc3ccc(Cl)c(Cl)c3)n2)CC1` [Compound 26, 2-[3-(3,4-dichlorophenyl)guanidino]-4-(1-ethyl-4-piperidylamino)-6-methylpyrimidine], the pIC50 with GBM8 cells and with GBM4 cells was greater than 5.00 in each case. As to `Cc1cc(N2CCN(C)CC2)nc(NC(=N)Nc2ccc(Cl)c(Cl)c2)n1` [Compound 27, 1-(3,4-dichlorophenyl)-3-[6-methyl-4-(4-methyl-1-piperazinyl)-2-pyrimidinyl]-guanidine], the figures for the negative-log IC50 (pIC50) in the assay with GBM8 cells and in the assay on GBM4 cells were greater than 5.00 and 4.52 to 5.00, respectively. For `Cc1cc(N(C)C)nc(NC(=N)Nc2ccc(Cl)c(Cl)c2)n1` [Compound 28, (N-methyl{2-[3-(3,4-dichlorophenyl)guanidino]-6-methyl-4-pyrimidinyl}amino)-methane] the same measures were greater than 5.00 and greater than 5.00.

`Cc1cc(N2CCOCC2)nc(NC(=N)Nc2ccc(Cl)c(Cl)c2)n1` [Compound 29, 1-(3,4-dichlorophenyl)-3-(4-methyl-6-morpholino-2-pyrimidinyl)guanidine]: the pIC50 in the assay on GBM8 cells and in the assay with GBM4 cells was greater than 5.00 each time.

Regarding `Cc1cc(NCCCN(C)C)nc(NC(=S)Nc2ccc(Cl)c(Cl)c2)n1` [Compound 31a, 1-{2-[3-(3,4-Dichlorophenyl)thioureido]-6-methyl-4-pyrimidinylamino}-3-(dimethylamino)propane], the pIC50 in the assay with GBM8 cells was greater than 5.00. `Cc1cc(NCCCN(C)C)nc(N/C(=N/C#N)Nc2ccc(Cl)c(Cl)c2)n1` [Compound 32, 1-(3,4-Dichlorophenyl)-3-{4-[3-(dimethylamino)propylamino]-6-methyl-2-pyrimidinyl}-2-guanidinecarbonitrile]: in the assay on GBM8 cells, the pIC50 was greater than 5.00. The same measure, in the same setting: under `C/N=C(\Nc1ccc(Cl)c(Cl)c1)Nc1nc(C)cc(NCCCN(C)C)n1` [Compound 33, 1-{2-[3-(3,4-Dichlorophenyl)-2-methylguanidino]-6-methyl-4-pyrimidinylamino}-3-(dimethylamino)propane] stands less than 4.52; under `Cc1cc(NCCCN(C)C)nc(/N=C(/Nc2ccc(Cl)c(Cl)c2)N(C)C)n1` [Compound 34, 1-{2-[3-(3,4-Dichlorophenyl)-1,1-dimethylguanidino]-6-methyl-4-pyrimidinylamino}-3-(dimethylamino)propane], less than 4.52; under `C/N=C(\Nc1ccc(Cl)c(Cl)c1)Nc1cc(C)cc(NCCCN(C)C)n1` [Compound 35, 1-{6-[3-(3,4-Dichlorophenyl)-2-methylguanidino]-4-methyl-2-pyridylamino}-3-(dimethylamino)propane], 4.52 to 5.00. As to `Cc1cc(/N=C(/Nc2ccc(Cl)c(Cl)c2)N(C)C)nc(NCCCN(C)C)c1` [Compound 39, 1-{6-[3-(3,4-Dichlorophenyl)-1,1-dimethylguanidino]-4-methyl-2-pyridylamino}-3-(dimethylamino)propane], the pIC50 with GBM8 cells was less than 4.52.
